Reference: US20120040977A1, “INHIBITORS OF HCV NS5A” (PRESIDIO PHARMACEUTICALS, INC., priority 2009, published 2012)

System: HCV genotype 1b replicon
Assay: HCV replicon assay (HCV 1b_Huh-Luc/Neo-ET cell line, luciferase readout)
Assay type: cell-based
Conditions: Hepatitis C virus; bicistronic genotype 1b replicon in Huh 7 cells, 72 h incubation, luciferase enzyme activity; read-out: Inhibition of HCV genotype 1b
Procedure: Biological activity of the compounds of the invention was determined using an HCV replicon assay. The HCV 1b_Huh-Luc/Neo-ET cell line persistently expressing a bicistronic genotype 1b replicon in Huh 7 cells was obtained from ReBLikon GMBH. This cell line was used to test compound inhibition using luciferase enzyme activity readout as a measurement of compound inhibition of replicon levels.
On Day 1 (the day after plating cells), each compound is added in triplicate to the cells. Plates are incubated for 72 h prior to determining luciferase levels. Enzyme activity was measured using a Bright-Glo Kit (cat. number E2620) manufactured by Promega Corporation. The following equation was used to generate a percent control value for each compound.
% Control=(Average Compound Value/Average Control)*100
The EC50 value was determined using GraphPad Prism and the following equation:
Y=Bottom+(Top−Bottom)/(1+10̂((LogIC50−X)*HillSlope))
EC50 values of compounds are determined several times in the replicon assay. […]

SMILES	EC50 [nM]
CC(C)[C@@H](NC(=O)C1CC1)C(=O)N1CCC[C@H]1c1ncc(-c2ccc(Oc3ccc(-c4cnc([C@@H]5CCCN5C(=O)[C@H](NC(=O)C5CC5)C(C)C)[nH]4)cc3)cc2)[nH]1 [Compound 53]	1 to 9.9
CC(C)[C@@H](NC(=O)C1CC1)C(=O)N1CCC[C@H]1C(=O)Nc1ccc(-c2ccc(-c3cnc([C@@H]4CCCN4C(=O)[C@H](NC(=O)C4CC4)C(C)C)[nH]3)cc2)cc1 [Compound 29]	1 to 9.9
O=C(N[C@@H](C(=O)N1CCC[C@H]1c1ncc(-c2ccc(Sc3ccc(-c4cnc([C@@H]5CCCN5C(=O)[C@H](NC(=O)C5CC5)c5ccccc5)[nH]4)cc3)cc2)[nH]1)c1ccccc1)C1CC1 [Compound 50]	< 1
COC(=O)N[C@H](C(=O)N1CCC[C@H]1C(=O)N[C@H](C)c1ccc(-c2ccc(-c3cnc([C@@H]4CCCN4C(=O)[C@@H](NC(=O)OC)[C@@H](C)OC)[nH]3)cc2)cc1)[C@@H](C)OC [Compound 102]	10 to 999
O=C(N[C@@H](C(=O)N1CCOC[C@H]1C(=O)Nc1ccc(-c2ccc(-c3cnc([C@@H]4COCCN4C(=O)[C@H](NC(=O)C4CC4)c4ccccc4)[nH]3)cc2)cc1)c1ccccc1)C1CC1 [Compound 1]	< 1
COC(=O)N[C@H](C(=O)N1CCC[C@H]1c1nc2c([nH]1)-c1ccc(-c3ccc(NC(=O)[C@@H]4CCCN4C(=O)[C@H](NC(=O)OC)c4ccccc4)cc3)cc1CC2)C(C)C [Compound 117]	< 1
C[C@H](NC(=O)[C@@H]1CCCN1C(=O)[C@H](NC(=O)N1CCOCC1)c1ccccc1)c1ccc(-c2ccc(-c3cnc([C@@H]4CCCN4C(=O)[C@H](NC(=O)N4CCOCC4)c4ccccc4)[nH]3)cc2)cc1 [Compound 38]	1 to 9.9
COC(=O)N[C@H](C(=O)N1CCC[C@H]1CNC(=O)c1ccc(-c2ccc3nc([C@@H]4CCCN4C(=O)[C@@H](NC(=O)OC)C(C)C)[nH]c3c2)cn1)C(C)C [Compound 115]	10 to 999
CC(C)[C@@H](NC(=O)OC(C)(C)C)C(=O)N1CCOC[C@H]1C(=O)Nc1ccc(-c2ccc(-c3cnc([C@@H]4CCCN4C(=O)[C@H](NC(=O)OC(C)(C)C)C(C)C)[nH]3)cc2)cc1 [Compound 13]	10 to 999
COC(=O)N[C@H](C(=O)N1CCC[C@H]1C(=O)N[C@@H](C)c1ccc(-c2ccc(-c3cnc([C@@H]4CCCN4C(=O)[C@@H](NC(=O)OC)C4CCOCC4)[nH]3)cc2)cc1)C1CCOCC1 [Compound 101]	1 to 9.9
COC(=O)N[C@H](C(=O)N1CCC[C@H]1CNC(=O)c1ccc(-c2ccc(-c3cnc([C@@H]4CCCN4C(=O)[C@@H](NC(=O)OC)C(C)C)[nH]3)cc2)cn1)C(C)C [Compound 83]	1 to 9.9
CC(C)(C)OC(=O)N1CCOCC1C(=O)Nc1ccc(-c2ccc(-c3cnc([C@@H]4CCCN4C(=O)OC(C)(C)C)[nH]3)cc2)cc1 (some centres unmarked) [Compound 6]	10 to 999
COC(=O)N[C@@H](C(=O)N1CCC[C@H]1C(=O)NCc1ccc(-c2ccc3nc([C@@H]4CCCN4C(=O)[C@H](NC(=O)OC)c4ccccc4)[nH]c3c2)cc1)c1ccccc1 [Compound 111]	< 1
COC(=O)N[C@H](C(=O)N1CCC[C@H]1CNC(=O)c1ccc(-c2ccc(-c3cnc([C@@H]4CCCN4C(=O)[C@@H](NC(=O)OC)C(C)C)[nH]3)nc2)cc1)C(C)C [Compound 90]	1 to 9.9
COC(=O)N[C@@H](C(=O)N1CCC[C@H]1c1ncc(-c2ccc(-c3ccc(C(=O)NC[C@@H]4CCCN4C(=O)[C@@H](c4ccccc4)N4CCOCC4)cc3)cc2)[nH]1)c1ccccc1 [Compound 63]	< 1
COC(=O)N[C@@H](C(=O)N1CCC[C@H]1CNC(=O)c1ccc(-c2ccc(-c3cnc([C@@H]4CCCN4C(=O)[C@H](NC(=O)N4CCN(C)CC4)c4ccccc4)[nH]3)cc2)cc1)c1ccccc1 [Compound 68]	< 1

SMILES	EC50 [nM]
COC(=O)N[C@@H](C(=O)N1CCC[C@H]1c1ncc(-c2ccc(-c3ccc(C(=O)NC[C@@H]4CCCN4C(=O)[C@@H](c4ccccc4)N(C)C)cc3)cc2)[nH]1)c1ccccc1 [Compound 65]	< 1
COC(=O)N[C@H](C(=O)N1CCC[C@H]1CNC(=O)c1ccc(-c2ccc3c(c2)CCc2nc([C@@H]4CCCN4C(=O)[C@@H](NC(=O)OC)C(C)C)[nH]c2-3)cc1)C(C)C [Compound 84]	< 1
C[C@H](NC(=O)[C@@H]1CCCN1C(=O)[C@H](NC(=O)N1CCN(C)CC1)c1ccccc1)c1ccc(-c2ccc(-c3cnc([C@@H]4CCCN4C(=O)[C@H](NC(=O)N4CCN(C)CC4)c4ccccc4)[nH]3)cc2)cc1 [Compound 36]	1 to 9.9
O=C(N[C@@H](C(=O)N1CCC[C@H]1COc1ccc(-c2ccc(-c3cnc([C@@H]4CCCN4C(=O)[C@H](NC(=O)N4CCOCC4)c4ccccc4)[nH]3)cc2)cc1)c1ccccc1)N1CCOCC1 [Compound 32]	< 1
O=C(NC[C@@H]1CCCN1C(=O)[C@H](NC(=O)C1CC1)c1ccccc1)c1ccc(-c2ccc(-c3cnc([C@@H]4CCCN4C(=O)[C@H](NC(=O)C4CC4)c4ccccc4)[nH]3)cc2)cc1 [Compound 55]	< 1
C[C@@H](NC(=O)OC(C)(C)C)C(=O)N1CCOC[C@H]1C(=O)Nc1ccc(-c2ccc(-c3cnc([C@@H]4CCCN4C(=O)[C@@H](C)NC(=O)OC(C)(C)C)[nH]3)cc2)cc1 [Compound 12]	10 to 999
COC(=O)N[C@@H](C(=O)N1CCC[C@H]1C(=O)NCc1ccc(-c2ccc(-c3cnc([C@@H]4CCCN4C(=O)[C@H](NC(=O)OC)c4ccccc4)[nH]3)cc2)cn1)c1ccccc1 [Compound 120]	< 1
COC(=O)N[C@@H](C(=O)N1CCC[C@H]1C(=O)Nc1ccc(-c2ccc(-c3cnc([C@@H]4CCCN4C(=O)[C@H](NC(=O)OC)c4ccccc4)[nH]3)cn2)cc1)c1ccccc1 [Compound 72]	< 1
C[C@@H](NC(=O)[C@@H]1CCCN1C(=O)[C@H](NC(=O)OC(C)(C)C)c1ccccc1)c1ccc(-c2ccc(-c3cnc([C@@H]4CCCN4C(=O)[C@H](NC(=O)OC(C)(C)C)c4ccccc4)[nH]3)cc2)cc1 [Compound 39]	< 1
COC(=O)N[C@@H](C)C(=O)N1CCC[C@H]1C(=O)Nc1ccc(-c2ccc(-c3cnc([C@@H]4CCCN4C(=O)[C@H](C)NC(=O)OC)[nH]3)cc2)cc1 [Compound 108]	10 to 999
COC(=O)N[C@@H](C(=O)N1CCC[C@H]1CNC(=O)c1ccc(-c2ccc(-c3cnc([C@@H]4CCCN4C(=O)[C@@H](c4ccccc4)N4CCCCC4)[nH]3)cc2)cc1)c1ccccc1 [Compound 61]	< 1
COC(=O)N[C@H](C(=O)N1CCC[C@H]1C(=O)Nc1ccc(-c2ccc3c(c2)CCc2nc([C@@H]4CCCN4C(=O)[C@@H](NC(=O)OC)C(C)C)[nH]c2-3)cc1)C(C)C [Compound 112]	1 to 9.9
C[C@@H](NC(=O)C1CC1)C(=O)N1CCC[C@H]1C(=O)Nc1ccc(-c2ccc(-c3cnc([C@@H]4COCCN4C(=O)[C@@H](C)NC(=O)C4CC4)[nH]3)cc2)cc1 [Compound 19]	1 to 9.9
COC(=O)N[C@H](C(=O)N1CCC[C@H]1C(=O)NCc1ccc(-c2ccc3nc([C@@H]4CCCN4C(=O)[C@@H](NC(=O)OC)C(C)C)[nH]c3c2)cc1)C(C)C [Compound 87]	1 to 9.9
COC(=O)N[C@@H](C(=O)N1CCC[C@H]1C(=O)NCc1ccc(-c2ccc(-c3cnc([C@@H]4CCCN4C(=O)[C@H](NC(=O)OC)c4ccccc4)[nH]3)cn2)cc1)c1ccccc1 [Compound 118]	< 1
C[C@@H](NC(=O)C1CC1)C(=O)N1CCOC[C@H]1C(=O)Nc1ccc(-c2ccc(-c3cnc([C@@H]4CCCN4C(=O)[C@@H](C)NC(=O)C4CC4)[nH]3)cc2)cc1 [Compound 22]	1 to 9.9
